Like-named read-outs stand apart in the source and are kept apart here.
How the values were obtained:
Assay type in all cases: cell-based
E. coli #G1880E = test system: E. coli #G1880E
[1] = test system: kanamycin resistant S. aureus; test: Checkerboard titration assay for synergy of honeybee venom with antibiotics (OD660 growth curves)
S. aureus #140A = test system: S. aureus #140A

SMILES: CC1(C)S[C@@H]2[C@H](NC(=O)[C@H](N)c3ccccc3)C(=O)N2[C@H]1C(=O)O [AMP]
- MEAN A660 (E. coli #G1880E; AMP = 0.5, HBV = 0, T0): 0.015
- MEAN A660 (E. coli #G1880E; AMP = 0.5, HBV = 0, T2): 0.084
- MEAN A660 (E. coli #G1880E; AMP = 0.5, HBV = 0, T4): 0.600
- MEAN A660 (E. coli #G1880E; AMP = 0.5, HBV = 0, T6): 1.001
- MEAN A660 (E. coli #G1880E; AMP = 0.5, HBV = 0, T8): 0.999
- MEAN A660 (E. coli #G1880E; AMP = 0.5, HBV = 0, T12): 1.085
- MEAN A660 (E. coli #G1880E; AMP = 0.5, HBV = 0, T24): 1.156
- MEAN A660 (E. coli #G1880E; AMP = 1, HBV = 0, T0): 0.015
- MEAN A660 (E. coli #G1880E; AMP = 1, HBV = 0, T2): 0.084
- MEAN A660 (E. coli #G1880E; AMP = 1, HBV = 0, T4): 0.538
- MEAN A660 (E. coli #G1880E; AMP = 1, HBV = 0, T6): 0.628
- MEAN A660 (E. coli #G1880E; AMP = 1, HBV = 0, T8): 0.493
- MEAN A660 (E. coli #G1880E; AMP = 1, HBV = 0, T12): 0.475
- MEAN A660 (E. coli #G1880E; AMP = 1, HBV = 0, T24): 0.504
- MEAN A660 (E. coli #G1880E; AMP = 2, HBV = 0, T0): 0.015
- MEAN A660 (E. coli #G1880E; AMP = 2, HBV = 0, T2): 0.084
- MEAN A660 (E. coli #G1880E; AMP = 2, HBV = 0, T4): 0.428
- MEAN A660 (E. coli #G1880E; AMP = 2, HBV = 0, T12): 0.136
- MEAN A660 (E. coli #G1880E; AMP = 2, HBV = 0, T24): 0.647
- MEAN A660 (E. coli #G1880E; AMP = 4, HBV = 0, T0): 0.015
- MEAN A660 (E. coli #G1880E; AMP = 4, HBV = 0, T2): 0.084
- MEAN A660 (E. coli #G1880E; AMP = 4, HBV = 0, T4): 0.158
- MEAN A660 (E. coli #G1880E; AMP = 4, HBV = 0, T6): 0.063
- MEAN A660 (E. coli #G1880E; AMP = 4, HBV = 0, T12): 0.055
- MEAN A660 (E. coli #G1880E; AMP = 4, HBV = 0, T24): 0.056
- MEAN A660 ([1]; AMP = 0.05, HBV = 0, T0): 0.020
- MEAN A660 ([1]; AMP = 0.05, HBV = 0, T2): 0.064
- MEAN A660 ([1]; AMP = 0.05, HBV = 0, T4): 0.230
- MEAN A660 ([1]; AMP = 0.05, HBV = 0, T6): 0.338
- MEAN A660 ([1]; AMP = 0.05, HBV = 0, T8): 0.372
- MEAN A660 ([1]; AMP = 0.05, HBV = 0, T12): 0.352
- MEAN A660 ([1]; AMP = 0.05, HBV = 0, T24): 0.461
- MEAN A660 ([1]; AMP = 0.1, HBV = 0, T0): 0.020
- MEAN A660 ([1]; AMP = 0.1, HBV = 0, T2): 0.064
- MEAN A660 ([1]; AMP = 0.1, HBV = 0, T4): 0.379
- MEAN A660 ([1]; AMP = 0.1, HBV = 0, T6): 0.156
- MEAN A660 ([1]; AMP = 0.1, HBV = 0, T8): 0.112
- MEAN A660 ([1]; AMP = 0.1, HBV = 0, T12): 0.050
- MEAN A660 ([1]; AMP = 0.1, HBV = 0, T24): 0.053
- MEAN A660 ([1]; AMP = 0.2, HBV = 0, T0): 0.020
- MEAN A660 ([1]; AMP = 0.2, HBV = 0, T2): 0.064
- MEAN A660 ([1]; AMP = 0.2, HBV = 0, T4): 0.131
- MEAN A660 ([1]; AMP = 0.2, HBV = 0, T6): 0.110
- MEAN A660 ([1]; AMP = 0.2, HBV = 0, T8): 0.073
- MEAN A660 ([1]; AMP = 0.2, HBV = 0, T12): 0.030
- MEAN A660 ([1]; AMP = 0.2, HBV = 0, T24): 0.037
- MEAN A660 ([1]; AMP = 0.4, HBV = 0, T0): 0.020
- MEAN A660 ([1]; AMP = 0.4, HBV = 0, T2): 0.064
- MEAN A660 ([1]; AMP = 0.4, HBV = 0, T4): 0.202
- MEAN A660 ([1]; AMP = 0.4, HBV = 0, T6): 0.290
- MEAN A660 ([1]; AMP = 0.4, HBV = 0, T8): 0.285
- MEAN A660 ([1]; AMP = 0.4, HBV = 0, T12): 0.271
- MEAN A660 ([1]; AMP = 0.4, HBV = 0, T24): 0.277
- MEAN A660 (S. aureus #140A; AMP = 0.05, HBV = 0, T0): 0.013
- MEAN A660 (S. aureus #140A; AMP = 0.05, HBV = 0, T2): 0.085
- MEAN A660 (S. aureus #140A; AMP = 0.05, HBV = 0, T4): 0.355
- MEAN A660 (S. aureus #140A; AMP = 0.05, HBV = 0, T6): 0.552
- MEAN A660 (S. aureus #140A; AMP = 0.05, HBV = 0, T12): 0.736
- MEAN A660 (S. aureus #140A; AMP = 0.05, HBV = 0, T24): 0.760
- MEAN A660 (S. aureus #140A; AMP = 0.05, HBV = 0, TB): 0.689
- MEAN A66O (S. aureus #140A; AMP = 0.1, HBV = 0, T0): 0.013
- MEAN A66O (S. aureus #140A; AMP = 0.1, HBV = 0, T2): 0.085
- MEAN A66O (S. aureus #140A; AMP = 0.1, HBV = 0, T4): 0.257
- MEAN A66O (S. aureus #140A; AMP = 0.1, HBV = 0, T6): 0.248
- MEAN A66O (S. aureus #140A; AMP = 0.1, HBV = 0, T8): 0.155
- MEAN A66O (S. aureus #140A; AMP = 0.1, HBV = 0, T12): 0.095
- MEAN A66O (S. aureus #140A; AMP = 0.1, HBV = 0, T24): 0.347
- MEAN A660 (S. aureus #140A; AMP = 0.2, HBV = 0, T0): 0.013
- MEAN A660 (S. aureus #140A; AMP = 0.2, HBV = 0, T2): 0.085
- MEAN A660 (S. aureus #140A; AMP = 0.2, HBV = 0, T4): 0.202
- MEAN A660 (S. aureus #140A; AMP = 0.2, HBV = 0, T6): 0.112
- MEAN A660 (S. aureus #140A; AMP = 0.2, HBV = 0, T8): 0.052
- MEAN A660 (S. aureus #140A; AMP = 0.2, HBV = 0, T12): 0.037
- MEAN A660 (S. aureus #140A; AMP = 0.2, HBV = 0, T24): 0.042
- MEAN A66O (S. aureus #140A; AMP = 0.4, HBV = 0, T0): 0.013
- MEAN A66O (S. aureus #140A; AMP = 0.4, HBV = 0, T2): 0.085
- MEAN A66O (S. aureus #140A; AMP = 0.4, HBV = 0, T4): 0.191
- MEAN A66O (S. aureus #140A; AMP = 0.4, HBV = 0, T6): 0.110
- MEAN A66O (S. aureus #140A; AMP = 0.4, HBV = 0, T8): 0.048
- MEAN A66O (S. aureus #140A; AMP = 0.4, HBV = 0, T12): 0.027
- MEAN A66O (S. aureus #140A; AMP = 0.4, HBV = 0, T24): 0.027

Reference: patent US20010021697A1, “METHODS AND COMPOSITIONS FOR THE TREATMENT OF MAMMALIAN INFECTIONS EMPLOYING MEDICAMENTS COMPRISING HYMENOPTERA VENOM, PROTEINAGEOUS OR POLYPEPTIDE COMPONENTS THEREOF, OR ANALOGUES OF SUCH PROTEINACEOUS OR POLYPEPTIDE COMPONENTS” (priority 1987, published 2001)
